# Measurements: PubChem BioAssay (NCI)
#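 The concentration for 50% growth inhibition is given as GI50. TGI: total growth inhibition.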
# How the values were obtained:
# Test in all cases: NCI tumour cell line growth inhibition, 384-well format
# 786-0 renal = test system: 786-0 renal
# A498 renal = test system: A498 renal
# A549 NSCLC = test system: A549 NSCLC
# ACHN renal = test system: ACHN renal
# BT-549 breast = test system: BT-549 breast
# CAKI-1 renal = test system: CAKI-1 renal
# CCRF-CEM leukemia = test system: CCRF-CEM leukemia
# COLO 205 colon = test system: COLO 205 colon
# DU-145 prostate = test system: DU-145 prostate
# EKVX NSCLC = test system: EKVX NSCLC
# HCC-2998 colon = test system: HCC-2998 colon
# HCT-15 colon = test system: HCT-15 colon
# HL-60(TB) leukemia = test system: HL-60(TB) leukemia
# HOP-62 NSCLC = test system: HOP-62 NSCLC
# HOP-92 NSCLC = test system: HOP-92 NSCLC
# HS 578T breast = test system: HS 578T breast
# HT29 colon = test system: HT29 colon
# IGROV1 ovarian = test system: IGROV1 ovarian
# K-562 leukemia = test system: K-562 leukemia
# KM12 colon = test system: KM12 colon
# LOX IMVI melanoma = test system: LOX IMVI melanoma
# M14 melanoma = test system: M14 melanoma
# MALME-3M melanoma = test system: MALME-3M melanoma
# MCF7 breast = test system: MCF7 breast
# MDA-MB-231 breast = test system: MDA-MB-231 breast
# MDA-MB-435 melanoma = test system: MDA-MB-435 melanoma
# MDA-MB-468 breast = test system: MDA-MB-468 breast
# MOLT-4 leukemia = test system: MOLT-4 leukemia
# NCI-H226 lung = test system: NCI-H226 lung
# NCI-H23 lung = test system: NCI-H23 lung
# NCI-H322M lung = test system: NCI-H322M lung
# NCI-H460 NSCLC = test system: NCI-H460 NSCLC
# NCI-H522 lung = test system: NCI-H522 lung
# NCI/ADR-RES ovarian = test system: NCI/ADR-RES ovarian
# OVCAR-3 ovarian = test system: OVCAR-3 ovarian
# OVCAR-4 ovarian = test system: OVCAR-4 ovarian
# OVCAR-5 ovarian = test system: OVCAR-5 ovarian
# OVCAR-8 ovarian = test system: OVCAR-8 ovarian
# PC-3 prostate = test system: PC-3 prostate
# RPMI-8226 leukemia = test system: RPMI-8226 leukemia
# RXF 393 renal = test system: RXF 393 renal
# SF-268 CNS = test system: SF-268 CNS
# SF-295 CNS = test system: SF-295 CNS
# SF-539 CNS = test system: SF-539 CNS
# SK-MEL-28 melanoma = test system: SK-MEL-28 melanoma
# SK-MEL-5 melanoma = test system: SK-MEL-5 melanoma
# SK-OV-3 ovarian = test system: SK-OV-3 ovarian
# SN12C renal = test system: SN12C renal
# SNB-19 CNS = test system: SNB-19 CNS
# SNB-75 CNS = test system: SNB-75 CNS
# SR leukemia = test system: SR leukemia
# SW-620 colon = test system: SW-620 colon
# T-47D breast = test system: T-47D breast
# TK-10 renal = test system: TK-10 renal
# U251 glioblastoma = test system: U251 glioblastoma
# UACC-257 melanoma = test system: UACC-257 melanoma
# UACC-62 melanoma = test system: UACC-62 melanoma
# UO-31 renal = test system: UO-31 renal
structure (smiles),measurement,setting,value
COCCn1c2c([n+](Cc3cnccn3)c1C)C(=O)c1ccccc1C2=O,GI50,786-0 renal,< 10 nM
same,TGI,786-0 renal,13 nM
same,GI50,A498 renal,159 nM
same,TGI,A498 renal,1230 nM
same,GI50,A549 NSCLC,< 10 nM
same,TGI,A549 NSCLC,12.9 nM
same,GI50,ACHN renal,17.6 nM
same,TGI,ACHN renal,45.7 nM
same,GI50,BT-549 breast,< 10 nM
same,TGI,BT-549 breast,< 10 nM
same,GI50,CAKI-1 renal,< 10 nM
same,TGI,CAKI-1 renal,< 10 nM
same,GI50,CCRF-CEM leukemia,< 10 nM
same,TGI,CCRF-CEM leukemia,16.5 nM
same,GI50,COLO 205 colon,< 10 nM
same,TGI,COLO 205 colon,11 nM
same,GI50,DU-145 prostate,< 10 nM
same,TGI,DU-145 prostate,< 10 nM
same,GI50,EKVX NSCLC,< 10 nM
same,TGI,EKVX NSCLC,< 10 nM
same,GI50,HCC-2998 colon,< 10 nM
same,TGI,HCC-2998 colon,14.3 nM
same,GI50,HCT-15 colon,40.3 nM
same,TGI,HCT-15 colon,735 nM
same,GI50,HL-60(TB) leukemia,< 10 nM
same,TGI,HL-60(TB) leukemia,< 10 nM
same,GI50,HOP-62 NSCLC,< 10 nM
same,TGI,HOP-62 NSCLC,15.2 nM
same,GI50,HOP-92 NSCLC,< 10 nM
same,TGI,HOP-92 NSCLC,< 10 nM
same,GI50,HS 578T breast,19.8 nM
same,TGI,HS 578T breast,125 nM
same,GI50,HT29 colon,18 nM
same,TGI,HT29 colon,55.4 nM
same,GI50,IGROV1 ovarian,< 10 nM
same,TGI,IGROV1 ovarian,< 10 nM
same,GI50,K-562 leukemia,< 10 nM
same,TGI,K-562 leukemia,< 10 nM
same,GI50,KM12 colon,26 nM
same,TGI,KM12 colon,114 nM
same,GI50,LOX IMVI melanoma,< 10 nM
same,TGI,LOX IMVI melanoma,< 10 nM
same,GI50,M14 melanoma,< 10 nM
same,TGI,M14 melanoma,12 nM
same,GI50,MALME-3M melanoma,16.1 nM
same,TGI,MALME-3M melanoma,37.9 nM
same,GI50,MCF7 breast,< 10 nM
same,TGI,MCF7 breast,< 10 nM
same,GI50,MDA-MB-231 breast,< 10 nM
same,TGI,MDA-MB-231 breast,< 10 nM
same,GI50,MDA-MB-435 melanoma,< 10 nM
same,TGI,MDA-MB-435 melanoma,< 10 nM
same,GI50,MDA-MB-468 breast,< 10 nM
same,TGI,MDA-MB-468 breast,< 10 nM
same,GI50,MOLT-4 leukemia,< 10 nM
same,TGI,MOLT-4 leukemia,< 10 nM
same,GI50,NCI-H226 lung,11.4 nM
same,TGI,NCI-H226 lung,40.4 nM
same,GI50,NCI-H23 lung,< 10 nM
same,TGI,NCI-H23 lung,< 10 nM
same,GI50,NCI-H322M lung,< 10 nM
same,TGI,NCI-H322M lung,25.9 nM
same,GI50,NCI-H460 NSCLC,< 10 nM
same,TGI,NCI-H460 NSCLC,12.2 nM
same,GI50,NCI-H522 lung,< 10 nM
same,TGI,NCI-H522 lung,< 10 nM
same,GI50,NCI/ADR-RES ovarian,18800 nM
same,TGI,NCI/ADR-RES ovarian,> 100000 nM
same,GI50,OVCAR-3 ovarian,< 10 nM
same,TGI,OVCAR-3 ovarian,< 10 nM
same,GI50,OVCAR-4 ovarian,< 10 nM
same,TGI,OVCAR-4 ovarian,< 10 nM
same,GI50,OVCAR-5 ovarian,< 10 nM
same,TGI,OVCAR-5 ovarian,16.5 nM
same,GI50,OVCAR-8 ovarian,< 10 nM
same,TGI,OVCAR-8 ovarian,< 10 nM
same,GI50,PC-3 prostate,< 10 nM
same,TGI,PC-3 prostate,< 10 nM
same,GI50,RPMI-8226 leukemia,< 10 nM
same,TGI,RPMI-8226 leukemia,< 10 nM
same,GI50,RXF 393 renal,< 10 nM
same,TGI,RXF 393 renal,12.1 nM
same,GI50,SF-268 CNS,< 10 nM
same,TGI,SF-268 CNS,< 10 nM
same,GI50,SF-295 CNS,10.4 nM
same,TGI,SF-295 CNS,22.5 nM
same,GI50,SF-539 CNS,< 10 nM
same,TGI,SF-539 CNS,< 10 nM
same,GI50,SK-MEL-28 melanoma,< 10 nM
same,TGI,SK-MEL-28 melanoma,< 10 nM
same,GI50,SK-MEL-5 melanoma,< 10 nM
same,TGI,SK-MEL-5 melanoma,< 10 nM
same,GI50,SK-OV-3 ovarian,< 10 nM
same,TGI,SK-OV-3 ovarian,< 10 nM
same,GI50,SN12C renal,< 10 nM
same,TGI,SN12C renal,< 10 nM
same,GI50,SNB-19 CNS,< 10 nM
same,TGI,SNB-19 CNS,< 10 nM
same,GI50,SNB-75 CNS,< 10 nM
same,TGI,SNB-75 CNS,< 10 nM
same,GI50,SR leukemia,< 10 nM
same,TGI,SR leukemia,< 10 nM
same,GI50,SW-620 colon,< 10 nM
same,TGI,SW-620 colon,10.3 nM
same,GI50,T-47D breast,< 10 nM
same,TGI,T-47D breast,< 10 nM
same,GI50,TK-10 renal,< 10 nM
same,TGI,TK-10 renal,24 nM
same,GI50,U251 glioblastoma,< 10 nM
same,TGI,U251 glioblastoma,< 10 nM
same,GI50,UACC-257 melanoma,< 10 nM
same,TGI,UACC-257 melanoma,< 10 nM
same,GI50,UACC-62 melanoma,< 10 nM
same,TGI,UACC-62 melanoma,< 10 nM
same,GI50,UO-31 renal,377 nM
same,TGI,UO-31 renal,7730 nM
